Results from PMC12066314, “Apigenin promotes melanogenesis and melanosome transport through the c-KIT/Raf-1/MAPK/CREB pathway in HEMCs” (Frontiers in Pharmacology, 2025).

Molecular target: c-KIT (Homo sapiens, UniProt P10721)
Experiment: microscale thermophoresis (MST), […] target
Format: binding

Sequence of c-KIT (P10721 26-976): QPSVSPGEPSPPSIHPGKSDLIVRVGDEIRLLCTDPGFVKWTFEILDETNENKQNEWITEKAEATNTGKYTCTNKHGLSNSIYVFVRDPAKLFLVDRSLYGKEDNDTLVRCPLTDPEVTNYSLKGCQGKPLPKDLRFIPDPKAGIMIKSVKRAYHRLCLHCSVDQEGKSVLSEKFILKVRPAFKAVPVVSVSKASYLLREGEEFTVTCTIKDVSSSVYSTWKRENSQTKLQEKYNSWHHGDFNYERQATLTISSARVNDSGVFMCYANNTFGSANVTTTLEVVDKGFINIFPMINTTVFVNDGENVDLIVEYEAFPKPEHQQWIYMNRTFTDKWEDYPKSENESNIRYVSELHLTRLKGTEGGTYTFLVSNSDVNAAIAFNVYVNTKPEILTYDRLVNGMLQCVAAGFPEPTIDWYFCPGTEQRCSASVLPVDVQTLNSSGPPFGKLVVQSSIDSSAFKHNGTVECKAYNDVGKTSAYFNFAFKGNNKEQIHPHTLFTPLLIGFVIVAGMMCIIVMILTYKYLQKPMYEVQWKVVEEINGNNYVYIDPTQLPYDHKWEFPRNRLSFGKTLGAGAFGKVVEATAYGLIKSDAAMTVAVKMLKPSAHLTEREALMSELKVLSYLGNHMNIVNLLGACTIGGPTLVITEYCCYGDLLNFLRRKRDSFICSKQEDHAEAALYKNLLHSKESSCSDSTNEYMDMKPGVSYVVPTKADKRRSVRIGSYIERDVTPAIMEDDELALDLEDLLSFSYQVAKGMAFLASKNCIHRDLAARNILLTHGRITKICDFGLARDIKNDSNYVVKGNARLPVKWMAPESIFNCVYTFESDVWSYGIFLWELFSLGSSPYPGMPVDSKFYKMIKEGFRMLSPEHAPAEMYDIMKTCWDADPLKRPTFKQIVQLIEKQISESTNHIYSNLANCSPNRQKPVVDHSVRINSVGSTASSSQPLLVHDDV

**Q.** `O=c1cc(-c2ccc(O)cc2)oc2cc(O)cc(O)c12` [Apigenin] was tested. Which Kd did it give?
**A.** 2600 nM
